Assay results published in patent publication US20260207604A1, “COMPOUND AND USE THEREOF” (ONQUALITY PHARMACEUTICALS CHINA LTD., priority 2022, published 2026).
Where two headings read alike, the source gives them in different places.

What was measured:
[1] = system: Human colorectal cancer COLO205 cells; assay: Cell apoptosis assay (Caspase-Glo 3/7), 5-FU-induced apoptosis; format: cell-based
Method: The Caspase-Glo® 3/7 assay was employed to evaluate the protective effect of the compounds of the present invention against 5-fluorouracil (5-FU)-induced apoptosis. Human colorectal cancer COLO205 cells were cultured in RPMI 1640 medium (Invitrogen) in an incubator at 37° C. with 5% CO2.
COLO205 cells were seeded in 96-well plates at a density of 4,000 cells per well and incubated overnight. On the following day, serially diluted concentrations of Compound 1 were added to the wells and incubated for 16 hours. Afterward, 5-FU was added and the cells were incubated for an additional 48 hours. Subsequently, Caspase-Glo® 3/7 reagent (100 μL) was added to each well. The cells were mixed on an orbital shaker for 10 min and incubated at room temperature for 2 h. After an additional 10-minute incubation, the plate was measured using the Envision instrument and the data was processed. Relief rate (%)=(5-FU group−CDK group)/5-FU group×100%.

[2] = system: Irinotecan-induced diarrhea model; assay: Irinotecan-induced diarrhea model; format: in vivo, Balb/c mice; settings: irinotecan 230 mg/kg once a day, 1 day, mice
Text: Irinotecan-induced diarrhea and/or constipation models were employed as additional in vivo experimental models to evaluate the activity of the compounds of the present application.
Balb/c mice (20-25 g, 7-8 weeks old, Jihui) were acclimated for one week and then randomly assigned to 3 groups (n=10 per group): control group, irinotecan group, and CDK inhibitor group. Control group: received the same vehicle as the CDK inhibitor group by oral gavage, followed by injection of the same vehicle as the irinotecan group; irinotecan group: received the same vehicle by oral gavage as the CDK inhibitor group, followed by injection of irinotecan; CDK inhibitor group: received oral administration of the CDK inhibitor, followed by injection of irinotecan.
In the irinotecan group, approximately 6 to 9 out of 10 mice developed diarrhea. From Day 1 to Day 7, the severity of diarrhea in each mouse was evaluated using the following scoring criteria:
The diarrhea scoring system was based on the method by Akinobu Kurita (Cancer Chemother Pharmacol 2000; 46:211-20), Grade 0: normal stool; Grade 1: mild diarrhea, slightly soft stool and wet stool; Grade 2: moderate diarrhea, loose stool with slight perianal staining; Grade 3: severe diarrhea, loose watery stool with severe perianal staining. Calculate the diarrhea Relief rate of compound treatment. Relief rate (%)=(diarrhea score of irinotecan group−diarrhea score of CDK inhibitor group)/diarrhea score of irinotecan group×100%.

[3] = target: CDK9/cyclin T (Homo sapiens, UniProt P50750); assay: KinaseProfile radiometric protein kinase assay, CDK9/cyclin T; format: biochemical
Method: (§1) The KinaseProfile radiometric protein kinase assay was used to evaluate the inhibitory activity of the compounds against CDK2/cyclin E, CDK4/cyclin D, CDK6/cyclin D, CDK7/cyclin H and CDK9/cyclin T.
(§2) The compounds were prepared in 100% DMSO at a final 50× stock concentration. The working stock solution was added as the first component to the assay wells. CDK2/cyclin E, CDK4/cyclin D, CDK6/cyclin D, CDK7/cyclin H, and CDK9/cyclin T were added in their respective kinase buffers: (CDK4: 8 mM MOPS pH 7.0, 0.2 mM EDTA, 0.03% BSA, 0.03% Tween 20, 20 mM DTT, and 0.2 mg/ml Rb fragment, 10 mM Magnesium acetate; CDK2, CDK6: 8 mM MOPS pH 7.0, 0.2 mM EDTA, 0.1 mg/mL histone H1, 10 mM Magnesium acetate; CDK7: 8 mM MOPS pH 7.0, 0.2 mM EDTA, 500 μM peptide, 10 mM Magnesium acetate; CDK9: 8 mM MOPS pH 7.0, 0.2 mM EDTA, 100 μM […], 10 mM Magnesium acetate) and [γ-^33 P-ATP] was included in the reaction mixture. The reaction was initiated by the addition of the Mg/ATP mixture and incubated at room temperature for 40 minutes. The reaction was terminated by the addition of 0.5% phosphoric acid. Then, 10 μL of the reaction mixture was spotted onto P30 filter pads, washed four times (1 minute each) with 0.425% phosphoric acid, followed by a single wash with methanol. The pads were then dried and counted. The data were recorded, inhibition rates were calculated, and IC50 values were determined accordingly. Table 2 summarizes the in vitro enzymatic inhibitory activity of the compounds of the present application.

[4] = target: CDK6/cyclin D (Homo sapiens, UniProt Q00534); assay: KinaseProfile radiometric protein kinase assay, CDK6/cyclin D; format: biochemical
Method: as §1, §2

[5] = system: MCF-7 human breast cancer cells; assay: Cell viability assay (CELLTITER-GLO); format: cell-based; settings: MCF7, 168 h, MCF-7 cells, 7 days
Method: The cell viability of MCF-7 human breast cancer cells under standard culture conditions was assessed using the CELLTITER-GLO assay. MCF-7 cells were seeded at 3,000 cells per well in 96-well plates and incubated overnight in a CO2 incubator. The next day, serial dilutions of Compound 1 at various concentrations were added to the wells. The plates were returned to the incubator and cultured for 7 days. After 7 days, the plates were equilibrated at room temperature for 30 minutes. Subsequently, 100 μL of CELLTITER-GLO detection solution was added. The cells were mixed on an orbital shaker for 5 min and then incubated for additional 10 min. The plate was read with an ENVISION reader. Data were processed and analyzed to determine the IC50 values.

[6] = system: 5-FU-induced diarrhea model; assay: 5-FU-induced diarrhea model, 5-FU 1-day model; format: in vivo, Balb/c mice; settings: 5-FU 175 mg/kg once a day, mice
Text: The 5-FU-induced diarrhea model was used as an experimental model of the present invention to evaluate the in vivo activity of the compounds.
Balb/c mice (20-25 g, 7-8 weeks old, Jihui) were acclimated for one week and then randomly assigned to 3 groups (n=10 per group): control group, 5-FU group, and CDK inhibitor group. The control group received the same vehicle as the CDK inhibitor group by oral gavage, followed by injection of the same vehicle as the 5-FU group. The 5-FU group received the same vehicle by oral gavage as the CDK inhibitor group, followed by 5-FU injection. The CDK inhibitor group received oral administration of the CDK inhibitor, followed by 5-FU injection. From day 1 to day 7, the severity of diarrhea was assessed for each mouse according to the diarrhea scoring system.
The diarrhea scoring system was based on the method by Akinobu Kurita (Cancer Chemother Pharmacol 2000; 46:211-20), Grade 0: normal stool; Grade 1: mild diarrhea, slightly soft stool and wet stool; Grade 2: moderate diarrhea, loose stool with slight perianal staining; Grade 3: severe diarrhea, loose watery stool with severe perianal staining.
The diarrhea relief rate (%) was calculated as follows: […]

[7] = 10 mg/kg oral, 10 hours before 5-FU and 2 hours after 5-FU
[8] = 25 mg/kg oral, 8 hours before 5-FU and 4 hours after 5-FU

Sequence of CDK6/cyclin D (Q00534 whole entry): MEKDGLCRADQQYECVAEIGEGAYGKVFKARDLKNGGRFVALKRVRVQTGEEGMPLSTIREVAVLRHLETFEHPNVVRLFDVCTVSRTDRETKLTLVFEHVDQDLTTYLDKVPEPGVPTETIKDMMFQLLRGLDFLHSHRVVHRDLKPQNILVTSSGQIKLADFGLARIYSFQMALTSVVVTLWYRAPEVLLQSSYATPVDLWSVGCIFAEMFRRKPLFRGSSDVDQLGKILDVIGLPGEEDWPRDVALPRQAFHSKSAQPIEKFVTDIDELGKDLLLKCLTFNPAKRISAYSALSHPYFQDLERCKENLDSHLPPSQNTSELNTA
Sequence of CDK6/cyclin D (P30281 whole entry partner): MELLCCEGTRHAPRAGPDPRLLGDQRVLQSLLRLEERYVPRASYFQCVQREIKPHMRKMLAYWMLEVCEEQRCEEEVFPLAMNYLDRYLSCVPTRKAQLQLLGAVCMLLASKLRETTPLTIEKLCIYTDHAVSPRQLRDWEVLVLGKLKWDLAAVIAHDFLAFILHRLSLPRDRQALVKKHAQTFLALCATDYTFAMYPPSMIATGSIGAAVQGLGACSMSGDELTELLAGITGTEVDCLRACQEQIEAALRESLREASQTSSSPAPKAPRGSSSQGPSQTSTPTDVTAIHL
Sequence of CDK9/cyclin T (P50750 whole entry): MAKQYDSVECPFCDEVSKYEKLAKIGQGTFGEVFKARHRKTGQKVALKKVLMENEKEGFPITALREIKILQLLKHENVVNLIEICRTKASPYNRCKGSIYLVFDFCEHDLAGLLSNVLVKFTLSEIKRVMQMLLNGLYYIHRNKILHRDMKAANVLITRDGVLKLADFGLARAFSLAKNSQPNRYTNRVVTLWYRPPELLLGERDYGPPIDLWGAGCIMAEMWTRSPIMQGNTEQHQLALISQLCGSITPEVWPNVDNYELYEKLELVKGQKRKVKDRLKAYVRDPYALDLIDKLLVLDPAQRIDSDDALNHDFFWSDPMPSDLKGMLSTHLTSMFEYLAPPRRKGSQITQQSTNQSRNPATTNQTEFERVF
Sequence of CDK9/cyclin T (O60563 whole entry partner): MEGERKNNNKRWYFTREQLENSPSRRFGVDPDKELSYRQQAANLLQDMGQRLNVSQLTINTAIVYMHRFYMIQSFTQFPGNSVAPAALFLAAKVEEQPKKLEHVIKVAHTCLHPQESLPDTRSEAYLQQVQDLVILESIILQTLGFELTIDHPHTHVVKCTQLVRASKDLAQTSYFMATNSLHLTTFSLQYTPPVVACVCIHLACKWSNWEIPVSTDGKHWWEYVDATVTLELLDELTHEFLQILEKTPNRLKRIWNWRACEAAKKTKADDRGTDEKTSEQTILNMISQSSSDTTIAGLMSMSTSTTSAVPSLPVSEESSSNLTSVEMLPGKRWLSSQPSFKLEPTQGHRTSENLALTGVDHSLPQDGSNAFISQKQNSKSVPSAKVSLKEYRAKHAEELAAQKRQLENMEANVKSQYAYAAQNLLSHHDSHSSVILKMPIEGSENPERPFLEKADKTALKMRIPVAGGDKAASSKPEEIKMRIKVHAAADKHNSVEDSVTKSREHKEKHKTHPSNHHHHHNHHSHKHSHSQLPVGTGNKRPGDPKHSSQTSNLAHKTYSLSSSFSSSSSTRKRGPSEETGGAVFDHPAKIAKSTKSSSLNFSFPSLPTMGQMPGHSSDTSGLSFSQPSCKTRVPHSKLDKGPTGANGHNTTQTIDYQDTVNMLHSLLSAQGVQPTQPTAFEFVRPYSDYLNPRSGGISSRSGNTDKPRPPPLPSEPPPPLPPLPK

Structure (SMILES) | Relief rate of 5-FU -induced cell apoptosis ([1]; concentration 0.1 μM) | Relief rate of 5-FU -induced cell apoptosis ([1]; concentration 1 μM) | Relief rate of 5-FU -induced cell apoptosis ([1]; concentration 5 μM) | Relief rate of 5-FU -induced cell apoptosis ([1]; concentration 25 μM) | IC50 [3] | IC50 [4] | IC50 ([5]; read-out: Absolute IC 50) | IC50 ([5]; read-out: Relative IC 50) | diarrhea relief rate [6, 7] | diarrhea relief rate [6, 8] | further results
CC(=O)c1c(C)c2cnc(Nc3ccc(N4CCN(S(=O)(=O)NCC(C)(C)CN)CC4)cn3)nc2n(C2CCCC2)c1=O [Compound 6] | 20% | 40% | 60% | 70% | > 1000 nM | < 100 nM | < 1000 nM | < 1000 nM | 60% | 75% | diarrhea relief rate ([2]; 10 mg/kg oral, 4 hours before and 8 hours after irinotecan): 50%; diarrhea relief rate ([2]; 25 mg/kg oral, 4 hours before and 8 hours after irinotecan): 85%; diarrhea relief rate ([2]; 25 mg/kg oral, 6 hours before and 6 hours after irinotecan): 60%; diarrhea relief rate ([2]; 100 mg/kg oral, 12 hours before irinotecan): 40%; diarrhea relief rate ([6]; 50 mg/kg oral, 6 hours before and 6 hours after 5-FU): 80%; diarrhea relief rate ([6]; 100 mg/kg oral, 12 hours before 5-FU): 50%
CC(=O)c1c(C)c2cnc(Nc3ccc(N4CCN(S(=O)(=O)NCC(C)N)CC4)cn3)nc2n(C2CCCC2)c1=O (centres unmarked) [Compound 3] | 20% | 40% | 40% | 30% | > 3000 nM | < 100 nM | < 10000 nM | < 5000 nM | 50% | 60% | diarrhea relief rate ([2]; 5 mg/kg oral, 4 hours before and 8 hours after irinotecan): 25%; diarrhea relief rate ([2]; 25 mg/kg oral, 10 hours before and 2 hours after irinotecan): 60%; diarrhea relief rate ([2]; 50 mg/kg oral, 4 hours before and 8 hours after irinotecan): 70%; diarrhea relief rate ([2]; 100 mg/kg oral, 6 hours before and 6 hours after irinotecan): 50%; diarrhea relief rate ([6]; 25 mg/kg oral, 2 hours before 5-FU and 10 hours after 5-FU): 40%; diarrhea relief rate ([6]; 150 mg/kg oral, 12 hours before 5-FU and 0 hours after 5-FU): 50%
